# Assay results taken from publication PMC8298439, “Development of a mechanistic model to predict synthetic biotic activity in healthy volunteers and patients with phenylketonuria” (Communications Biology, 2021).
# Molecular target: T1, PAL (phenylalanine ammonia lyase) of SYNB1618 (Photorhabdus laumondii, UniProt Q7N4T3)
# T1 construct: gene plu2234; expressed in cytosol of engineered E. coli Nissle 1917 (SYNB1618, with PheP transporter, dapA deleted); whole-cell assay, LAAD not induced; multimeric
# T1 sequence (Q7N4T3 entry or part of it): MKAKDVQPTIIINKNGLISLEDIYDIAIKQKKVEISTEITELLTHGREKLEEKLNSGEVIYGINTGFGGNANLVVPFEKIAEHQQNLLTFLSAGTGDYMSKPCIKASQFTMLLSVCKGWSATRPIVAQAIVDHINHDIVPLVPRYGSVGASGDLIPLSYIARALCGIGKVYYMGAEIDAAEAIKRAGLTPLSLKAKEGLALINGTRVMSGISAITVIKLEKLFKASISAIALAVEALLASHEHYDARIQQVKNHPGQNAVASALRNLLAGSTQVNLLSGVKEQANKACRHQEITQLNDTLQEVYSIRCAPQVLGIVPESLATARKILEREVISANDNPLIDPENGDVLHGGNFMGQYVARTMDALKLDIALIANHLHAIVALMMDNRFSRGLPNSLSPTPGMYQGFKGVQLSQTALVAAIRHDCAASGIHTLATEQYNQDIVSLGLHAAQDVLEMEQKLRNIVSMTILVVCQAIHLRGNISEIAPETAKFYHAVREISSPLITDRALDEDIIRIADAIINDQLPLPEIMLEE
# Assay: d5-TCA formation from d5-Phe by whole SYNB1618 cells, LC-MS/MS
# Type: cell-based
# Conditions: whole-cell product (feedback) inhibition; 20 mM d5-Phe; 0.0–8.0 mM exogenous unlabeled TCA; 60 min
smiles,measurement,value
O=C(O)/C=C/c1ccccc1 [TCA],% decrease of de novo d5-TCA production,up to 60
